Measured values reported in patent publication US7816521B2, “1,2,4-benzotriazine-1,4-dioxides” (Auckland Uniservices Limited, priority 2004, dated 2010).
Converted amounts (≈) assume the structure as drawn. Read-outs that look alike come from different tables or passages of the source.

How the values were obtained:
HT29 cells = assay: First order rate constant for anoxic metabolism in HT29 cells (kmet); assay type: in vitro ADME, human; settings: rate constant of bioreductive metabolism, Table 1
Experimental: The apparent first order rate constants for anoxic metabolism in HT29 cells (kmet) of compounds representative of the invention were either: • 1. Estimated at the C10 experimentally by incubating stirred single cell suspensions (typically 10 ml at 2×10^6/ml of HT29 cells derived by trypsinisation of multicellular spheroids) in αMEM without serum in 20 ml bottles under flowing 5% CO2/N2 for 90 min, then introducing the compound using deoxygenated DMSO stock solutions to give a range of final drug concentrations. Samples (0.5 ml) were removed at intervals (typically 5 min, 30 min, 1,2,3 hr), washed by centrifugation, and plated to determine the number of clonogenic survivors as described by Hicks et al Cancer Res. 2003 63, 5970. The concentration of compound giving 1 log of kill at 1 hr (C10) was estimated by interpolation. Additional samples taken at the same times were centrifuged to remove cells, and supernatant stored at −80° C. for subsequent HPLC or LCMS analysis. The concentration of compound in the extracellular medium was plotted against time and the concentration closest to the C10 was used to estimate the first order rate constant. This was scaled to MCL cell density as described in Hicks et al, Cancer Res. 2003, 63, 5970 to obtain kmet. Cell viability was determined with a hemocytometer at the end of drug exposure by staining with 0.4% trypan blue to ensure metabolic viability was >75%. TPZ (30 μM) was included in each experiment as a reference compound. O2, in solution was measured using an OxyLite O2 luminescent fiber optic probe (Oxford Optronix Ltd, UK) to ensure severe hypoxia (<0.1 μM).

[1] = Plasma pharmacokinetics, AUC of free drug in CD-1 nude mice; assay type: in vivo, mouse; settings: for AUC: CD-1 nude, mouse, ip
Experimental: The area under the concentration time curve for free drug (AUCf) in mouse plasma at the maximum tolerated dose (MTD) was determined either experimentally or by calculation.
The compound was formulated in a suitable vehicle (e.g. 0.9% saline, 5% DMSO in 0.9% saline) and administered intraperitoneally (i.p.) as single dose to CD-1 nude mice in a dose-escalating format using 1.33-fold dose increments.
The compound was administered to CD-1 nude mice in a suitable formulation as a single dose (i.p.) at the MTD. Blood samples were collected by retro-orbital sinus bleed or cardiac puncture after which the mouse was culled, or by serial bleeding from the tail vein. Typical time points were 15, 30, 60, and 120 min after administration. Blood was collected in a heparinised container and centrifuged to collect the plasma. The plasma concentration of the compound was determined by HPLC or LCMS using suitable sample preparation and analytical methods. Calibration was done with internal or external standards. The area under the concentration-time curve (AUC) for total (free plus bound) drug was calculated using the linear/log trapezoidal rule and extrapolation to infinity OR standard non-compartmental (PK) modelling.
Plasma protein binding was measured by the determination of the free fraction (FF) by equilibrium dialysis at 37° C. in 50% (v/v) mouse plasma in phosphate-buffered saline (pH 7.4), using a single drug concentration at or near the observed or extrapolated maximum concentration in plasma (Cmax). Compound concentrations after dialysis were determined by HPLC or LCMS.
AUCf for the compound administered as a single dose (i.p.) to CD-1 nude mice at the MTD can be estimated using the following regression equation: Log10(AUCf)=a+b×log Pneutral+c×log10(IC50)+d×log10(HCR)+e×log10(DMCL)+f×log10(kmet)+g×(log Pneutral)^2 where the coefficients are described in the following table: […]

[2] = Solubility in culture medium; assay type: physicochemical; settings: culture medium (αMEM with 5% foetal bovine serum), plasma or biological fluid, thermodynamic from solid; culture medium (αMEM, 5% foetal bovine serum), pH 7.4; no unit in table, threshold is 2 mM
Experimental: Solubility is determined in laboratory culture medium (alpha minimal essential medium (αMEM) with 5% foetal bovine serum) saturated with 5% carbon dioxide at pH 7.4, by addition of excess compound and sonication at ambient temperature for 15 minutes. Alternatively the compound is diluted from a concentrated stock solution in DMSO into culture medium to give a final DMSO concentration <1%. The mixture is centrifuged at 13,000 rpm for 6 minutes and the concentration of drug in the supernatant solution is then determined by HPLC using a standard reference solution in a suitable solvent.

[3] = test system: human colon carcinoma cell line HT-29; assay: Proliferation assay (IC50) under aerobic and hypoxic conditions; assay type: cell-based; settings: for IC50: Homo sapiens, HT-29, HT29, anoxic, 4 hr exposure; for HCR: hypoxic cytotoxicity ratio: aerobic IC50 / hypoxic IC50, HT29
Experimental: Compounds representative of the invention were evaluated under both aerobic and hypoxic conditions in a proliferation assay (IC50) using the human colon carcinoma cell line HT-29 as previously described [Hay et al, J. Med. Chem, 2003, 46, 169]. For each experiment, compounds were simultaneously tested under both oxic and hypoxic conditions and included TPZ as an independent internal control at the front and back of the assay. In all cases, a 8-methyl-5-nitroquinoline derivative was used as a second internal control to confirm that strict hypoxia was present during the experiment [Siim et al., Br. J. Cancer 1994, 70, 596].

[4] = AUC of free drug, single i.p. dose at maximum tolerated dose, mice, Table 1
[5] = plasma, mouse plasma, free drug, at the MTD or 75% of the MTD, Table 2, read-out: AUC
[6] = plasma, AUC of free drug, single i.p. dose at maximum tolerated dose, mice, Table 1, read-out: AUCf

For `CCCN(CCC)CCNc1n[n+]([O-])c2ccccc2[n+]1[O-]` [G], which kmet (HT29 cells) is on record?
Its kmet is 4.89 min⁻¹.

What about the AUCf [1, 4] of the same molecule?
Its AUCf is 7.2 µM·h.

What about the AUC [1, 5] of the same molecule?
Its AUC is 7.1 µM·h.

What about the solubility [2] of the same molecule?
Its solubility is 26 mM (≈ 7940 µg/mL).

What about the IC50 [3] of the same molecule?
The IC50 was 1650 nM.

And the HCR [3]?
The HCR was 81.6.

Which kmet (HT29 cells) does the source give for `CCc1n[n+]([O-])c2ccccc2[n+]1[O-]` [I] here?
The kmet was 1.91 min⁻¹.

What about the AUC [1, 6] of the same molecule?
Its AUC is 141 µM·h.

What about the AUC [1, 5] of the same molecule?
Its AUC is 139 µM·h.

What about the solubility [2] of the same molecule?
The solubility was 14.5 mM (≈ 2770 µg/mL).

And the IC50 [3]?
Its IC50 is 6780 nM.

What about the HCR [3] of the same molecule?
Its HCR is 54.2.

Which results are given for `Nc1n[n+]([O-])c2c(Cl)cccc2[n+]1[O-]` [D, 8-Chloro-1,2,4-benzotriazin-3-amine 1,4-Dioxide]?
kmet (HT29 cells): 10.03 min⁻¹; AUC [1, 6]: 0.8 µM·h; AUC [1, 5]: 0.7 µM·h; solubility [2]: 2.22 mM (≈ 472 µg/mL); IC50 [3]: 550 nM; HCR [3]: 13.6

Which kmet (HT29 cells) does the source give for `Nc1n[n+]([O-])c2cc(Cl)ccc2[n+]1[O-]` [C, 7-Chloro-1,2,4-benzotriazin-3-amine 1,4-Dioxide] here?
The kmet was 3.92 min⁻¹.

What about the AUC [1, 6] of the same molecule?
The AUC was 1.9 µM·h.

And the AUC [1, 5]?
Its AUC is 2.7 µM·h.

What about the solubility [2] of the same molecule?
The solubility was 0.09 mM (≈ 19.1 µg/mL).

And the IC50 [3]?
Its IC50 is 730 nM.

And the HCR [3]?
Its HCR is 28.5.

With `CN(CCCNC(=O)c1cccc2ccc(-c3ccncc3)nc12)CCCNc1n[n+]([O-])c2ccccc2[n+]1[O-]` [M] as the molecule, how does the kmet (HT29 cells) read?
Its kmet is 9.13 min⁻¹.

What about the AUC [1, 6] of the same molecule?
Its AUC is 0.9 µM·h.

And the AUC [1, 5]?
Its AUC is 1.2 µM·h.

And the solubility [2]?
Its solubility is 3.8 mM (≈ 2050 µg/mL).

And the IC50 [3]?
Its IC50 is 125 nM.

And the HCR [3]?
Its HCR is 119.0.

For `Cc1ccc2c(c1)[n+]([O-])c(NCCCN(C)CCCNC(=O)c1cccc3cc4ccccc4nc13)n[n+]2[O-]` [N], which kmet (HT29 cells) is on record?
Its kmet is 4.74 min⁻¹.

And the AUC [1, 6]?
The AUC was 1.3 µM·h.

And the AUC [1, 5]?
Its AUC is 1.6 µM·h.

And the solubility [2]?
The solubility was 32.4 mM (≈ 17000 µg/mL).

What about the IC50 [3] of the same molecule?
Its IC50 is 225 nM.

And the HCR [3]?
The HCR was 134.0.

Which kmet (HT29 cells) does the source give for `COCCc1n[n+]([O-])c2ccccc2[n+]1[O-]` [J] here?
The kmet was 2.01 min⁻¹.

And the AUC [1, 6]?
The AUC was 79 µM·h.

What about the AUC [1, 5] of the same molecule?
Its AUC is 83.5 µM·h.

And the solubility [2]?
Its solubility is 21 mM (≈ 4650 µg/mL).

What about the IC50 [3] of the same molecule?
The IC50 was 3500 nM.

And the HCR [3]?
The HCR was 49.4.

For `Cc1ccc2c(c1)[n+]([O-])c(N)n[n+]2[O-]` [B, 6-Methyl-1,2,4-benzotriazin-3-amine 1,4-Dioxide], which kmet (HT29 cells) is on record?
The kmet was 0.20 min⁻¹.

What about the AUCf [1, 4] of the same molecule?
The AUCf was 188.7 µM·h.

What about the AUC [1, 5] of the same molecule?
Its AUC is 216 µM·h.

What about the solubility [2] of the same molecule?
Its solubility is 3.02 mM (≈ 580 µg/mL).

And the IC50 [3]?
The IC50 was 12900 nM.

What about the HCR [3] of the same molecule?
Its HCR is 35.8.

With `CS(=O)(=O)c1ccc2c(c1)[n+]([O-])nc(N)[n+]2[O-]` [E, 7-(Methylsulfonyl)-1,2,4-benzotriazin-3-amine 1,4-Dioxide] as the molecule, how does the kmet (HT29 cells) read?
The kmet was 1.00 min⁻¹.

And the AUC [1, 6]?
Its AUC is 15.6 µM·h.

What about the AUC [1, 5] of the same molecule?
Its AUC is 15.6 µM·h.

And the solubility [2]?
Its solubility is 0.49 mM (≈ 126 µg/mL).

And the IC50 [3]?
Its IC50 is 9950 nM.

What about the HCR [3] of the same molecule?
Its HCR is 12.0.

With `[O-][n+]1nc(NCCCCCCNc2c3ccccc3nc3ccccc23)[n+]([O-])c2ccccc21` [K] as the molecule, how does the kmet (HT29 cells) read?
Its kmet is 18.33 min⁻¹.

What about the AUC [1, 6] of the same molecule?
The AUC was 0.042 µM·h.

What about the solubility [2] of the same molecule?
Its solubility is 0.024 mM (≈ 10.9 µg/mL).

What about the IC50 [3] of the same molecule?
The IC50 was 25 nM.

And the HCR [3]?
Its HCR is 31.8.

With `Cc1ccc2c(c1)[n+]([O-])nc(NCCN(C)C)[n+]2[O-]` [F, 7-Methyl-N-[2-(dimethylamino)ethyl]-1,2,4-benzotriazin-3-amine 1,4-Dioxide] as the molecule, how does the kmet (HT29 cells) read?
The kmet was 2.54 min⁻¹.

And the AUC [1, 6]?
Its AUC is 3.5 µM·h.

What about the AUC [1, 5] of the same molecule?
The AUC was 3.9 µM·h.

What about the solubility [2] of the same molecule?
Its solubility is 38.7 mM (≈ 10200 µg/mL).

What about the IC50 [3] of the same molecule?
Its IC50 is 1080 nM.

What about the HCR [3] of the same molecule?
Its HCR is 34.3.

For `Cc1ccc2c(c1)[n+]([O-])c(NCCN(C)C)n[n+]2[O-]` [H, N^1,N^1-Dimethyl-N^2-(6-methyl-1,4-dioxido-1,2,4-benzotriazin-3-yl)-1,2-ethanediamine], which kmet (HT29 cells) is on record?
Its kmet is 1.52 min⁻¹.

And the AUCf [1, 4]?
The AUCf was 69.0 µM·h.

And the AUC [1, 5]?
The AUC was 67.8 µM·h.

And the solubility [2]?
The solubility was 52 mM (≈ 13700 µg/mL).

And the IC50 [3]?
The IC50 was 1850 nM.

And the HCR [3]?
Its HCR is 159.0.

Which kmet (HT29 cells) does the source give for `Nc1n[n+]([O-])c2ccccc2[n+]1[O-]` [A, tirapazamine, reference compound] here?
Its kmet is 0.60 min⁻¹.

What about the AUC ([1]; in vivo, AUC) of the same molecule?
Its AUC is 148 µM·h.

And the AUC ([1]; in vivo, AUCf)?
Its AUC is 148 µM·h.

What about the solubility [2] of the same molecule?
The solubility was 8.9 mM (≈ 1590 µg/mL).

What does the source list for `CN(CCCNC(=O)c1cccc2cc3ccccc3nc12)CCCNc1n[n+]([O-])c2ccccc2[n+]1[O-]` [L]?
kmet (HT29 cells): 9.18 min⁻¹; AUC [1, 6]: 3.6 µM·h; AUC [1, 5]: 3.3 µM·h; solubility [2]: 0.45 mM (≈ 230 µg/mL); IC50 [3]: 50 nM; HCR [3]: 154.0
